The values that follow come from ChEMBL document CHEMBL3853353, “Identification and optimization of a new series of anti-tubercular quinazolinones” (Bioorg Med Chem Lett, 2016).

Data set [1] concerns Mycobacterium tuberculosis. Description: Antimycobacterial activity against Mycobacterium tuberculosis H37Rv infected in Balb/c mouse assessed as bacterial burden in lungs at 10 mg/kg, po administered daily through gavage for 2 weeks starting on day 2 post infection measured on day 12 post infection (reference value: 6.4 log10CFU). Format: functional, Lung.
Data set [2] deals with Mycobacterium tuberculosis. Description: Antimycobacterial activity against Mycobacterium tuberculosis H37Rv infected in Balb/c mouse assessed as bacterial burden in lungs at 10 mg/kg, po administered daily through gavage starting on day 2 post infection for 4 days per week for 2 weeks measured on day 12 post infection (reference value: 7.8 log10CFU). Format: functional, Lung.

Data set [3] is described as follows: Protein binding in human plasma at 1 to 10 uM after 4 hrs by LC-MS/MS analysis. Format: ADME, cell-free. Particulars: read-out: PPB (converted).
Data set [4] can be described thus: Protein binding in Swiss mouse plasma at 1 to 10 uM after 4 hrs by LC-MS/MS analysis. The data set is classed as ADME, cell-free. To be noted: read-out: PPB (converted).
Data set [5] deals with Mycobacterium tuberculosis. Description: Antimycobacterial activity against Mycobacterium tuberculosis H37Rv infected in Balb/c mouse assessed as bacterial burden in lungs at 100 mg/kg, po administered daily through gavage starting on day 2 post infection for 4 days per week for 2 weeks as VitE/PEG200/HPC formulation measured on day 12 post infection (reference value: 7.8 log10CFU). Format: functional, Lung.

Data set [6] in a line: AUC in Balb/c mouse plasma infected with Mycobacterium tuberculosis H37Rv at 100 mg/kg, po administered through gavage as VitE/PEG200/HPC formulation. Format: ADME, organism-based.
A short description of data set [7]: Ratio of drug level in Mycobacterium tuberculosis H37Rv infected Balb/c mouse lung to plasma at 100 mg/kg, po administered through gavage as VitE/PEG200/HPC formulation. To be noted: other tissue.
Data set [8] concerns Mycobacterium tuberculosis. Put plainly: Antimycobacterial activity against Mycobacterium tuberculosis H37Rv incubated for 5 days in presence of 25% human serum by Bactiter-Glo assay. The data set is classed as functional. Particulars: 120 h.
Data set [9] deals with Mus musculus. Put plainly: Toxicity in Balb/c mouse infected with Mycobacterium tuberculosis H37Rv at 300 mg/kg, po administered through gavage as single dose. Format: organism-based. Particulars: in vivo.
The nature of data set [10]: Half life in Balb/c mouse infected with Mycobacterium tuberculosis H37Rv at 100 mg/kg, po administered through gavage as VitE/PEG200/HPC formulation. Format: ADME, organism-based. To be noted: in vivo.
For data set [11], the system named is Mycobacterium tuberculosis. Put plainly: Antimycobacterial activity against Mycobacterium tuberculosis H37Rv incubated for 5 days in presence of 25% mouse serum by Bactiter-Glo assay. Format: functional. Particulars: 120 h.
Data set [12] concerns Mycobacterium tuberculosis. Put plainly: Antimycobacterial activity against Mycobacterium tuberculosis H37Rv infected in Balb/c mouse assessed as bacterial burden in lungs at 10 mg/kg, po administered daily through gavage starting on day 2 post infection for 4 days per week for 2 weeks as VitE/PEG200/HPC formulation measured on day 12 post infection (reference value: 7.8 log10CFU). The data set is classed as functional, Lung.

The subject of data set [13] is Mycobacterium tuberculosis. Description: Antimycobacterial activity against Mycobacterium tuberculosis H37Rv incubated for 5 days by Bactiter-Glo assay. Particulars: 120 h. Format: functional.
The test system of data set [14] is Mycobacterium tuberculosis. Description: Antimycobacterial activity against Mycobacterium tuberculosis H37Rv infected in Balb/c mouse assessed as bacterial burden in lungs at 30 mg/kg, po administered daily through gavage starting on day 2 post infection for 4 days per week for 2 weeks as VitE/PEG200/HPC formulation measured on day 12 post infection (reference value: 7.8 log10CFU). Format: functional, Lung.

A short description of data set [15]: Cytotoxicity against human HepG2 cells assessed as reduction in cell viability after 40 hrs by Celltiter-Glo assay. To be noted: hepg2. On the technique in general: Cellular ATP, detected with luciferase, serves as a proxy for viable cell number.
Data set [16] deals with Mycobacterium tuberculosis. Put plainly: Antimycobacterial activity against GFP-tagged Mycobacterium tuberculosis H37Rv infected in mouse RAW264.7 cells incubated for 4 days by Mask blue/Hoechst/FITC staining based fluorescence microscopic analysis. The data set is classed as functional. To be noted: 96 h.

Converted amounts (≈) assume the structure as drawn.

As to `CO[C@H]1/C=C/O[C@@]2(C)Oc3c(C)c(O)c4c(O)c(c(/C=N/N5CCN(C)CC5)c(O)c4c3C2=O)NC(=O)/C(C)=C\C=C\[C@H](C)[C@H](O)[C@@H](C)[C@@H](O)[C@@H](C)[C@H](OC(C)=O)[C@@H]1C` [RIFAMPIN], the Activity in data set [1] was determined as 3.9 log10CFU; in data set [2] it was 5.2.
Regarding `Cn1c(NCCc2ccc(-c3ccc(F)cc3)cc2)nc2cc(N)ccc2c1=O`, the fraction unbound at 4 h in data set [3] and in data set [4] was 0.002 throughout. In addition, the Activity is on record as 7 in data set [5], “Toxic” in data set [9], 7.4 in data set [12] and 7.1 in [14]. In data set [6], this molecule came in with an AUC of 29000 ng·h/mL. Also, in [7], the Kp stood at 4.5. For the same molecule, the MIC80 worked out at 0.01 µM in data set [8], 0.007 µM in data set [11], 0.01 µM (≈ 0.00388 µg/mL) in data set [13] and 0.06 µM (≈ 0.0233 µg/mL) in data set [16]. In [10], the half-life was 6 h. Besides, the half-inhibitory concentration (IC50) at 40 h in data set [15] was more than 30 µM.

The AUC is the area under the concentration-time curve, a measure of exposure. Read a high AUC as high exposure. One may read the Kp as the ratio of the level in a tissue or fluid to that in plasma or blood. What is called MIC80 is the lowest concentration that inhibits either 80% of growth or 80% of the strains tested, depending on the study. One may read the half-life as the time needed for the level to fall by half in the phase considered. Lower therefore signals rapid decline. The term IC50 denotes the concentration needed to halve the response being measured.
